The target of test [1] is T1, Recombinant ROCK1 (amino acids 1-477) (Homo sapiens, UniProt Q13464).
T1 construct: Recombinant ROCK1 (amino acids 1-477); by word order, ROCK1 from Carna Biosciences
The experiment in a line: ROCK inhibition assay, LANCE Ultra TR-FRET kinase assay (ROCK1). Type of test: biochemical. The conditions noted are these: 1 μM ATP, 50 nM ULight-CREBtide substrate. The gist of the method:
(§1)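 Reaction buffer 50 mM HEPES pH 7.5, 10 mM MgCl2, 1 mM EGTA, 2 mM DTT; kinase, ULight-CREBtide (50 nM) and ATP (ROCK1 1 μM, ROCK2 4 μM) react 1 h at room temperature. Phospho-Ser133 detected by europium antibody after 10 mM EDTA stop, TR-FRET ex 320 nm; IC50 calculated.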
In general terms: In TR-FRET formats the signal depends on donor and acceptor labels being close together.

Test [2] has as its system ROCK1/2 in A7r5 cells (pMLC2 levels). Nature of the test: Inhibition of ROCK1/2 in A7r5 cells, cell-based ELISA of phospho-myosin light chain (pMLC2, Thr18/Ser19). The conditions noted are these: Rattus norvegicus, 1.5 h, treated with test compounds for 90 minutes, read-out: pMLC2 (cellular EC50). Here is the method:
Inhibition of ROCK1/2 in A7r5 cells was measured through cell-based ELISA assay. Rat aortic smooth muscle cell line A7r5 cells were maintained and treated in DMEM medium with 10% fetal bovine serum. Cells were seeded with 5,000 cells/well in 96 well plates for 24 hours and subsequently treated with test compounds for 90 minutes. Cells were then fixed and processed according to the In-Cell ELISA Colrimetric Detection Kit manual (Thermo Scientific). Cellular phospho-myosin light chain (pMLC2, Thr18/Ser19) levels were determined after treatment with DMSO control or a test compound using the In-Cell ELISA kit.
The resulting data was applied to the following formula ‘[1-(compound/DMSO)]×100%’ to calculate the percent inhibition rate. pMLC2 data obtained from 9 points 3-fold serial dilution of compounds were applied to the nonlinear regression curve fit function of the GraphPad Prism software to calculate the cellular EC50 values.

The target of test [3] is T2, Recombinant ROCK2 (amino acids 5-554) (Homo sapiens, UniProt O75116).
T2 construct: ROCK2 (amino acids 5-554); by word order, ROCK2 from SignalChem
T2 sequence (O75116 5-554): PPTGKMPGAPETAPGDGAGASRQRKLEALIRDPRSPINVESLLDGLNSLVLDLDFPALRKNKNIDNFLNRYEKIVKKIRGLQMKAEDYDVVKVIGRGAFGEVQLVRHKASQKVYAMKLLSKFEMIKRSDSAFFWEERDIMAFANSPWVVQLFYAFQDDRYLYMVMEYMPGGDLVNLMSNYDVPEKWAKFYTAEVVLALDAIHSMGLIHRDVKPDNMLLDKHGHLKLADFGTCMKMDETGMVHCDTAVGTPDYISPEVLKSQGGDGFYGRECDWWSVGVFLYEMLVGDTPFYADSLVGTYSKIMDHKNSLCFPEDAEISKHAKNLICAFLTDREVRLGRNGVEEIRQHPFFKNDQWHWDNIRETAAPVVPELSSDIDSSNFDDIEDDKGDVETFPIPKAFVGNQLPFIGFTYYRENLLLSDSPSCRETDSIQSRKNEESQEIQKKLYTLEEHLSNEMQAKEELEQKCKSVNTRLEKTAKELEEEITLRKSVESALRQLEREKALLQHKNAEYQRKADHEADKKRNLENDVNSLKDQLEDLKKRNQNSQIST
The experiment in a line: ROCK inhibition assay, LANCE Ultra TR-FRET kinase assay (ROCK2). Type of test: biochemical. The conditions noted are these: 4 μM ATP, 50 nM ULight-CREBtide substrate. The essentials: as §1

T1 sequence (Q13464 1-477): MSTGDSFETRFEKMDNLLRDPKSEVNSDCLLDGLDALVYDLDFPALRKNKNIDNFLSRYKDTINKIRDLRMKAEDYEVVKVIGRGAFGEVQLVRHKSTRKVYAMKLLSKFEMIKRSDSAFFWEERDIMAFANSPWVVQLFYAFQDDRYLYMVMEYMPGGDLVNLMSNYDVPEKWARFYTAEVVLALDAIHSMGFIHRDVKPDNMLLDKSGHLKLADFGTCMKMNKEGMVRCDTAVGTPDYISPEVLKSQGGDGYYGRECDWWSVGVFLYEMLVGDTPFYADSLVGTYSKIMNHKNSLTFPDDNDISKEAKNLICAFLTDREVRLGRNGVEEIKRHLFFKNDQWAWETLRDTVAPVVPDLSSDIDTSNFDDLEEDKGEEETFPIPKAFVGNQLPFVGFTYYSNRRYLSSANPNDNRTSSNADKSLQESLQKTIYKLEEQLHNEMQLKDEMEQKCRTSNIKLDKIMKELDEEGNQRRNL

One may read the IC50 as the concentration that inhibits the measured activity by half. Usually EC50 stands for the concentration needed to bring the measured effect to its halfway point. On to `CNC(=O)c1cccc([C@@H](C)n2cnc3cc(-c4cn[nH]c4C(F)(F)F)ccc3c2=O)c1` [Compound 440, (R)—N-methyl-3-(1-(4-oxo-7-(5-(trifluoromethyl)-1H-pyrazol-4-yl)quinazolin-3(4H)-yl)ethyl)benzamide], for which the IC50 in test [1] is 11 to 100 nM; in test [3] it was under 10 nM. Besides, the EC50 in test [2] fell in the range of 101 to 500 nM.
With `Nc1cc(-c2ccc3c(=O)n(Cc4cccc(C(=O)Nc5ccc6c(c5)CCNC6)c4)ccc3c2)ccn1` [Compound 188], the IC50 is 11 to 100 nM in test [1] and under 10 nM in test [3]. In test [2], the half-maximal effective concentration (EC50) was under 100 nM.
For `Cc1nocc1-c1ccc2c(=O)n(Cc3cccc(C(=O)NC4CCN(CC(F)F)CC4)c3)ccc2c1` [Compound 86] the same measures were 11 to 100 nM, under 10 nM and under 100 nM.
Taken in the same sequence, the figures for `Cn1nccc1-c1ccc2c(=O)n(Cc3cc(F)cc(C(=O)N[C@H]4CC[C@@H](O)CC4)c3)ccc2c1` [Compound 165] were 101 to 500 nM, 10 to 100 nM and 501 to 1000 nM.
Taken in the same sequence, the figures for `COc1cccc(Cn2ccc3cc(-c4ccncc4)ccc3c2=O)c1` [Compound 22] were under 10 nM, under 10 nM and under 100 nM.
As for `CNC(=O)c1cccc([C@@H](C)n2cnc3cc(-c4conc4C)ccc3c2=O)c1` [Compound 469], the half-maximal inhibitory concentration (IC50) in test [1] is 11 to 100 nM; in test [3], under 10 nM. The concentration for a half-maximal effect (EC50) in test [2] was under 100 nM.

The values are drawn from patent US12064426B2, “Selective inhibitors of ROCK1 and ROCK2 protein kinases and uses thereof” (GENOSCO Inc., priority 2021, dated 2024).
